{
  "source": "patent US10555919B2",
  "about": "“Melatonin in autoimmune disease” (The Brigham and Women's Hopsital, Inc., priority 2014, dated 2020)",
  "key": {"[1]": {"tested_on": "human CD4+ T cells activated under Th17 polarizing conditions", "test": "In vitro human Th17 differentiation", "assay_type": "cell-based", "conditions": "500 ng/ml", "protocol": "(§1) In vitro human T cell differentiation. For Th17 differentiation, naive CD45RA+ CD4+ T cells were isolated from PBMCs with magnetic beads (Naive Human CD4+ T Cell Isolation Kit II, Miltenyi Biotec) and seeded at a density of 5×10^5 cells/ml in 24-well plates coated with anti-CD3 and (2 μg/ml) and soluble anti-CD28 and cultured in the presence of the following cytokines IL-1β (25 ng/ml), IL-6 (50 ng/ml), and TGF-β1 (2 ng/ml) and neutralizing antibodies to IFN-g ([…]) and IL-4 (10 microgram/ml). Alternatively, Th17 cells were differentiated by using IL-1β (25 ng/ml), IL-6 (50 ng/ml), and IL-23 (50 ng/ml) and neutralizing antibodies to IFN-g ([…]) and IL-4 (10 microgram/ml). For Th1 differentiation naïve CD4+T cells are cultured in the presence of IL-12 (20 ng/ml) and anti-IL-4 (10 μg/ml).\nSecreted cytokines were measured in tissue culture supernatants after 72-96 hs by enzyme-linked immunosorbent assay as previously described (Farez et al., 2009)."}, "Splenocytes": {"tested_on": "Splenocytes", "test": "Recall response to MOG35-55 of splenocytes from melatonin-treated mice", "assay_type": "in vivo", "protocol": "Secreted cytokines were measured in tissue culture supernatants after 72-96 hs by enzyme-linked immunosorbent assay as previously described (Farez et al., 2009). […] The cells were pulsed with [3H]thymidine (1 μCi/well) for the final 24 h. The frequency of T cells producing IL-17 (eBioscience), IFN-γ (BioLegend) or IL-10 (BD Pharmingen) and Foxp3+ T cells (eBioscience) was assessed by flow cytometry. For CFSE-based proliferation assay, CD4+ T cells were labeled with 1 μM CFSE (carboxyfluorescein diacetate succinimidyl ester; Molecular Probes). Data were acquired on an […] (BD Biosciences) or MacsQuants (Miltenyi) and analyzed with FlowJo software (TreeStar). To further characterize the effects of melatonin on the encephalitogenic T-cell response, we analyzed the recall response to MOG35-55. […] Thus, melatonin arrests the encephalitogenic Th17 cell response."}, "human Th1 cells": {"tested_on": "human Th1 cells", "test": "In vitro human Th1 differentiation", "assay_type": "cell-based", "conditions": "500 ng/ml; IL-12", "protocol": "as §1"}, "[2]": {"tested_on": "experimental autoimmune encephalitis (EAE) model of MS", "test": "EAE in mice immunized with MOG35-55, treated daily with melatonin or vehicle", "assay_type": "in vivo, C57BL/6 wild-type mice", "conditions": "melatonin 5 mg/kg intraperitoneally daily"}, "Erk1/2": {"tested_on": "Erk1/2", "test": "Signal transduction profiling using reverse protein arrays", "assay_type": "cell-based, mouse", "conditions": "T cells; MTNR1A-dependent", "quoted_text": "Cells activated under polarizing conditions were treated with vehicle (DMSO 0.001%), melatonin (2-10 ng/mL), agomelatine (2-10 ng/mL) and CGP-52608 (2-10 ng/mL) during 72-96 hs and lysed. Lysates were transferred to 384-well polypropylene plates and were spotted onto Super Epoxi slides (Telechem) with a robotic microarrayer (Genetix) fitted with solid spotting pins."}, "CD4+ T cells [3]": {"tested_on": "CD4+ T cells", "test": "Th17 differentiation in vivo in RAG-1 deficient mice reconstituted with CD4+ T cells and immunized with MOG35-55 in CFA", "conditions": "melatonin 5 mg/kg", "excerpt": "Sorted splenic CD4+ T cells from C57BL/6, MTNR1A-, REV-ERBα and NFIL3-deficient mice were transferred i.p. (10×10^6 cells per mouse) into RAG-1 deficient mice. Ten days after transfer, mice were checked for reconstitution of CD4+ T cells and immunized with MOG35-55 in CFA. Twenty days after immunization, T cells were isolated and stained for cytokines."}, "CD4+ T cells [4]": {"tested_on": "CD4+ T cells", "test": "Co-incubation of sorted CD4+ T cells with treatment-switched dendritic cells", "assay_type": "in vivo", "conditions": "CD4+ T cells from melatonin-treated mice co-incubated with splenic DCs from control mice", "protocol": "To investigate if melatonin acts directly on T cells or whether it controls the T-cell response indirectly through its effects on antigen presenting cells, we co-incubated sorted CD4^+ T cells from melatonin-treated or control mice with treatment-switched dendritic cells (DCs)."}, "[5]": {"tested_on": "FoxP3+ iTregs, Th1 or Th2 cells", "test": "In vitro mouse differentiation of FoxP3+ iTregs, Th1 or Th2 cells", "assay_type": "cell-based", "conditions": "melatonin 2 ng/ml, 3 days", "protocol": "Naive CD4+ T cells (CD4+CD44loCD62LhiCD25−) were from the spleen and lymph node of C57BL/6 wild-type, MTNR1A−, NFIL3−, REV-ERBα, C/EBPα-deficient or RORα-deficient mice using magnetic beads (CD4+ T cell isolation kit, Miltenyi Biotec). All experiments were started between 7 and 9 am. Cells were activated with plate-bound anti-CD3 (2 μg/ml; 14-0031-86; eBioscience) and anti-CD28 (2 μg/ml; 16-0281-86; eBioscience). Mouse IL-27 (30 ng/ml; 34-8271; Biolegend) was added for the generation of Tr1 cells. IL-6 (30 ng/ml; 406-ML-025; R&D Systems), TGF-β1 (15 ng/ml; 130-095-067; […] C17.8; Biolegend) and anti-IFN-γ (5 μg/ml; XMG1.2; Biolegend) were added for the generation of Th17 cells. Recombinant mouse IL-23 (30 ng/ml; 1887-ML-010; R&D Systems) was added at day 2. For some experiments IL-6 and […] (10 ng/ml; 401-ML-025; R&D Systems) or TGF-β1 and IL-21 (100 ng/ml; 594-ML-010; R&D Systems) were used in instead for Th17 cell differentiation. IL-12 (30 ng/ml; 419-ML-010; […] C17.8; Biolegend) were used for the generation of Th1 cells. IL-4 (30 ng/ml; 404-ML-010; R&D Systems) and anti-IFN-γ (5 μg/ml; XMG1.2; Biolegend) was added for the generation of Th2 cells. TGF-β1 (15 ng/ml; 130-095-067; Miltenyi Biotec) was used for the generation of Foxp3+ Tregs."}, "[6]": {"tested_on": "human CD4+ T cells activated under Tr1 polarizing conditions", "test": "In vitro human Tr1 differentiation", "assay_type": "cell-based", "conditions": "500 ng/ml", "excerpt": "We then studied the effects of melatonin on human CD4^+ T cells. In addition, we also analyzed the effects of agomelatine, which activates melatonin-dependent signaling (Hickie and Rogers, 2011). Based on the effects of melatonin administration on T cells during EAE, we focused our studies on human Th17 and Tr1 cells. Melatonin and agomelatine reduced the production of IL-17, RORC and IL17A expression by human CD4^+ T cells activated under Th17 polarizing conditions (FIGS. 3a-c and FIG. 8), no effect was detected on the differentiation of human Th1 cells (FIGS. 3d-f). Concomitantly, melatonin and agomelatine increased IL10 expression."}},
  "data": [
    {"compound": "COc1ccc2[nH]cc(CCNC(C)=O)c2c1", "note": "[Melatonin, N-Acetyl-5-methoxytryptamine]", "values": [
      {"measurement": "production of IL-17, RORC and IL17A expression", "setting": "[1]", "value": "reduced"},
      {"measurement": "IL10 expression", "setting": "[1]; Th17 polarizing conditions", "value": "increased"},
      {"measurement": "proliferative response to MOG35-55", "setting": "Splenocytes", "value": "diminished"},
      {"measurement": "IFN-γ production", "setting": "Splenocytes; recall to MOG35-55", "value": "no significant effects"},
      {"measurement": "IL-10 production", "setting": "Splenocytes; recall to MOG35-55", "value": "increased"},
      {"measurement": "IL-17 production", "setting": "Splenocytes; recall to MOG35-55", "value": "reduced"},
      {"measurement": "differentiation of human Th1 cells", "setting": "human Th1 cells", "value": "no effect"},
      {"measurement": "EAE clinical symptoms", "setting": "[2]", "value": "ameliorated"},
      {"measurement": "Mean onset day (mean ± sd)", "setting": "[2]", "value": "11.8 ± 3.0", "unit": "days"},
      {"measurement": "Mortality", "setting": "[2]", "value": "0/24"},
      {"measurement": "Mean maximum score (mean ± sd)", "setting": "[2]; **P < 0.05", "value": "2.06 ± 0.8**"},
      {"measurement": "Incidence (%)", "setting": "[2]; *P = 0.05", "value": 65, "unit": "%"},
      {"measurement": "Incidence (animals)", "setting": "[2]; *P = 0.05", "value": "17/24"},
      {"measurement": "activation of Erk1/2", "setting": "Erk1/2", "value": "increase"},
      {"measurement": "Th17 cell differentiation in vivo", "setting": "CD4+ T cells [3]; mice reconstituted with MTNR1A-, REV-ERBα or NFIL3-deficient T cells", "value": "increased"},
      {"measurement": "Th17 cell differentiation in vivo", "setting": "CD4+ T cells [3]; mice reconstituted with wild type CD4+ T cells", "value": "suppression"},
      {"measurement": "IL-10 production", "setting": "CD4+ T cells [4]", "value": "increased"},
      {"measurement": "proliferation and IL-17 secretion", "setting": "CD4+ T cells [4]", "value": "decreased"},
      {"measurement": "differentiation of FoxP3+ iTregs, Th1 or Th2 cells", "setting": "[5]", "value": "no effects"},
      {"measurement": "IL-10 production", "setting": "[6]", "value": "increased"}
    ]}
  ]
}
